Reference: ChEMBL document CHEMBL5303573, “Mapping human microbiome drug metabolism by gut bacteria and their genes” (Nature, 2019)

Key:
[1] = The drug is tested on Collinsella aerofaciens strain: ATCC25986 for biotransformation. The drug concentrations were measured before and after a 12-h incubation by liquid-chromatography-coupled mass spectrometry (LC–MS); settings: 2 µM
[2] = The drug is tested on Collinsella intestinalis strain: DSM13280 for biotransformation. The drug concentrations were measured before and after a 12-h incubation by liquid-chromatography-coupled mass spectrometry (LC–MS); settings: 2 µM
[3] = The drug is tested on Alistipes indistinctus strain: DSM22520 for biotransformation. The drug concentrations were measured before and after a 12-h incubation by liquid-chromatography-coupled mass spectrometry (LC–MS); settings: 2 µM
[4] = The drug is tested on Bacteroides dorei strain: DSM17855 for biotransformation. The drug concentrations were measured before and after a 12-h incubation by liquid-chromatography-coupled mass spectrometry (LC–MS); settings: phocaeicola dorei, 2 µM
[5] = The drug is tested on Bacteroides finegoldii strain: DSM17565 for biotransformation. The drug concentrations were measured before and after a 12-h incubation by liquid-chromatography-coupled mass spectrometry (LC–MS); settings: 2 µM
[6] = The drug is tested on Bacteroides fragilis strain: HMW615 for biotransformation. The drug concentrations were measured before and after a 12-h incubation by liquid-chromatography-coupled mass spectrometry (LC–MS); settings: 2 µM
[7] = The drug is tested on Bacteroides uniformis strain: ATCC8492 for biotransformation. The drug concentrations were measured before and after a 12-h incubation by liquid-chromatography-coupled mass spectrometry (LC–MS); settings: 2 µM
[8] = The drug is tested on Bacteroides vulgatus strain: ATCC8482 for biotransformation. The drug concentrations were measured before and after a 12-h incubation by liquid-chromatography-coupled mass spectrometry (LC–MS); settings: phocaeicola vulgatus, 2 µM
[9] = The drug is tested on Odoribacter splanchnicus strain: fecal isolate for biotransformation. The drug concentrations were measured before and after a 12-h incubation by liquid-chromatography-coupled mass spectrometry (LC–MS); settings: 2 µM
[10] = The drug is tested on Anaerococcus hydrogenalis strain: DSM7454 for biotransformation. The drug concentrations were measured before and after a 12-h incubation by liquid-chromatography-coupled mass spectrometry (LC–MS); settings: 2 µM
[11] = The drug is tested on Blautia hansenii strain: DSM20583 for biotransformation. The drug concentrations were measured before and after a 12-h incubation by liquid-chromatography-coupled mass spectrometry (LC–MS); settings: 2 µM
[12] = The drug is tested on Clostridium scindens strain: ATCC35704 for biotransformation. The drug concentrations were measured before and after a 12-h incubation by liquid-chromatography-coupled mass spectrometry (LC–MS); settings: 2 µM
[13] = The drug is tested on Clostridium sporogenes strain: ATCC15579 for biotransformation. The drug concentrations were measured before and after a 12-h incubation by liquid-chromatography-coupled mass spectrometry (LC–MS); settings: 2 µM
[14] = The drug is tested on Eubacterium hallii strain: DSM3353 for biotransformation. The drug concentrations were measured before and after a 12-h incubation by liquid-chromatography-coupled mass spectrometry (LC–MS); settings: anaerobutyricum hallii, 2 µM
[15] = The drug is tested on Edwardsiella tarda strain: ATCC23685 for biotransformation. The drug concentrations were measured before and after a 12-h incubation by liquid-chromatography-coupled mass spectrometry (LC–MS); settings: 2 µM
[16] = The drug is tested on Escherichia coli strain: BW25113 for biotransformation. The drug concentrations were measured before and after a 12-h incubation by liquid-chromatography-coupled mass spectrometry (LC–MS); settings: 2 µM
[17] = bacteroides stercoris, 12 h, 2 µM
Description: The drug is tested on Bacteroides stercoris strain: ATCC43183 for biotransformation. The drug concentrations were measured before and after a 12-h incubation by liquid-chromatography-coupled mass spectrometry (LC–MS)

[18] = bacteroides thetaiotaomicron, 12 h, 2 µM
Description: The drug is tested on Bacteroides thetaiotaomicron strain: 3731 for biotransformation. The drug concentrations were measured before and after a 12-h incubation by liquid-chromatography-coupled mass spectrometry (LC–MS)

[19] = akkermansia muciniphila, 12 h, 2 µM
Description: The drug is tested on Akkermansia muciniphila strain: ATCC BAA-835 for biotransformation. The drug concentrations were measured before and after a 12-h incubation by liquid-chromatography-coupled mass spectrometry (LC–MS)

[20] = The drug is tested on Clostridium ramosum strain: DSM1402 for biotransformation. The drug concentrations were measured before and after a 12-h incubation by liquid-chromatography-coupled mass spectrometry (LC–MS); settings: thomasclavelia ramosa, 2 µM

For `Cc1nc(-c2ccc(OCC(C)C)c(C#N)c2)sc1C(=O)O` [FEBUXOSTAT], the “Bacterial Biotransformation” value [1] was “Compound NOT metabolized”, the “Bacterial Biotransformation” value [2] was “Compound NOT metabolized” and the “Bacterial Biotransformation” value [3] was “Compound NOT metabolized”. For the same molecule, the “Bacterial Biotransformation” value [4] was “Compound metabolized”, the “Bacterial Biotransformation” value [5] was “Compound NOT metabolized” and the “Bacterial Biotransformation” value [6] was “Compound NOT metabolized”. For the same molecule, the “Bacterial Biotransformation” value [7] was “Compound metabolized”, the “Bacterial Biotransformation” value [8] was “Compound metabolized” and the “Bacterial Biotransformation” value [9] was “Compound metabolized”. For the same molecule, the “Bacterial Biotransformation” value [10] was “Compound NOT metabolized”, the “Bacterial Biotransformation” value [11] was “Compound NOT metabolized” and the “Bacterial Biotransformation” value [12] was “Compound NOT metabolized”. The “Bacterial Biotransformation” value [13] was “Compound NOT metabolized”, the “Bacterial Biotransformation” value [14] was “Compound NOT metabolized” and the “Bacterial Biotransformation” value [15] was “Compound NOT metabolized”. The “Bacterial Biotransformation” value [16] was “Compound NOT metabolized”, the “Bacterial Biotransformation” value [17] was “Compound NOT metabolized” and the “Bacterial Biotransformation” value [18] was “Compound NOT metabolized”.
In the case of `COC1=CC(=O)C[C@@H](C)[C@]12Oc1c(Cl)c(OC)cc(OC)c1C2=O` [GRISEOFULVIN], the “Bacterial Biotransformation” value [1] is reported as “Compound NOT metabolized”, the “Bacterial Biotransformation” value [2] is reported as “Compound NOT metabolized” and the “Bacterial Biotransformation” value [3] is reported as “Compound NOT metabolized”. For the same molecule, the “Bacterial Biotransformation” value [4] was “Compound metabolized”, the “Bacterial Biotransformation” value [5] was “Compound NOT metabolized” and the “Bacterial Biotransformation” value [6] was “Compound metabolized”. The “Bacterial Biotransformation” value [7] was “Compound metabolized”, the “Bacterial Biotransformation” value [8] was “Compound metabolized” and the “Bacterial Biotransformation” value [10] was “Compound NOT metabolized”. For the same molecule, the “Bacterial Biotransformation” value [11] was “Compound metabolized”, the “Bacterial Biotransformation” value [12] was “Compound NOT metabolized” and the “Bacterial Biotransformation” value [14] was “Compound NOT metabolized”. The “Bacterial Biotransformation” value [15] was “Compound NOT metabolized”, the “Bacterial Biotransformation” value [18] was “Compound NOT metabolized” and the “Bacterial Biotransformation” value [19] was “Compound metabolized”.
With `OCCOCCN1CCN(C2=Nc3ccccc3Sc3ccccc32)CC1` [QUETIAPINE] the “Bacterial Biotransformation” value [1] was “Compound NOT metabolized”, the “Bacterial Biotransformation” value [2] was “Compound NOT metabolized” and the “Bacterial Biotransformation” value [3] was “Compound NOT metabolized”. The “Bacterial Biotransformation” value [4] was “Compound NOT metabolized”, the “Bacterial Biotransformation” value [5] was “Compound NOT metabolized” and the “Bacterial Biotransformation” value [6] was “Compound NOT metabolized”. For the same molecule, the “Bacterial Biotransformation” value [7] was “Compound NOT metabolized”, the “Bacterial Biotransformation” value [8] was “Compound NOT metabolized” and the “Bacterial Biotransformation” value [9] was “Compound NOT metabolized”. The “Bacterial Biotransformation” value [10] was “Compound NOT metabolized”, the “Bacterial Biotransformation” value [11] was “Compound NOT metabolized” and the “Bacterial Biotransformation” value [12] was “Compound NOT metabolized”. For the same molecule, the “Bacterial Biotransformation” value [14] was “Compound NOT metabolized”, the “Bacterial Biotransformation” value [15] was “Compound NOT metabolized” and the “Bacterial Biotransformation” value [16] was “Compound NOT metabolized”. The “Bacterial Biotransformation” value [17] was “Compound NOT metabolized” and the “Bacterial Biotransformation” value [19] was “Compound NOT metabolized”.
For `COc1ccccc1OCC(O)CN1CCN(CC(=O)Nc2c(C)cccc2C)CC1` (stereo not drawn) [RANOLAZINE], the “Bacterial Biotransformation” value [1] was “Compound NOT metabolized”, the “Bacterial Biotransformation” value [2] was “Compound NOT metabolized” and the “Bacterial Biotransformation” value [3] was “Compound NOT metabolized”. For the same molecule, the “Bacterial Biotransformation” value [4] was “Compound NOT metabolized”, the “Bacterial Biotransformation” value [5] was “Compound NOT metabolized” and the “Bacterial Biotransformation” value [6] was “Compound NOT metabolized”. The “Bacterial Biotransformation” value [7] was “Compound NOT metabolized”, the “Bacterial Biotransformation” value [8] was “Compound NOT metabolized” and the “Bacterial Biotransformation” value [9] was “Compound NOT metabolized”. For the same molecule, the “Bacterial Biotransformation” value [10] was “Compound NOT metabolized”, the “Bacterial Biotransformation” value [11] was “Compound NOT metabolized” and the “Bacterial Biotransformation” value [12] was “Compound NOT metabolized”. The “Bacterial Biotransformation” value [14] was “Compound NOT metabolized”, the “Bacterial Biotransformation” value [15] was “Compound NOT metabolized” and the “Bacterial Biotransformation” value [17] was “Compound NOT metabolized”. The “Bacterial Biotransformation” value [18] was “Compound NOT metabolized”.
In the case of `CCCc1nn(C)c2c(=O)[nH]c(-c3cc(S(=O)(=O)N4CCN(C)CC4)ccc3OCC)nc12.O=C(O)CC(O)(CC(=O)O)C(=O)O` [SILDENAFIL CITRATE], the “Bacterial Biotransformation” value [2] is reported as “Compound NOT metabolized”, the “Bacterial Biotransformation” value [3] is reported as “Compound NOT metabolized” and the “Bacterial Biotransformation” value [5] is reported as “Compound NOT metabolized”. For the same molecule, the “Bacterial Biotransformation” value [6] was “Compound NOT metabolized”, the “Bacterial Biotransformation” value [7] was “Compound NOT metabolized” and the “Bacterial Biotransformation” value [8] was “Compound NOT metabolized”. The “Bacterial Biotransformation” value [9] was “Compound metabolized”, the “Bacterial Biotransformation” value [10] was “Compound metabolized” and the “Bacterial Biotransformation” value [11] was “Compound metabolized”. For the same molecule, the “Bacterial Biotransformation” value [12] was “Compound NOT metabolized”, the “Bacterial Biotransformation” value [14] was “Compound NOT metabolized” and the “Bacterial Biotransformation” value [15] was “Compound NOT metabolized”. For the same molecule, the “Bacterial Biotransformation” value [16] was “Compound NOT metabolized”, the “Bacterial Biotransformation” value [17] was “Compound NOT metabolized” and the “Bacterial Biotransformation” value [18] was “Compound NOT metabolized”. For the same molecule, the “Bacterial Biotransformation” value [19] was “Compound NOT metabolized”.
In the case of `O=C1C(CC[S+]([O-])c2ccccc2)C(=O)N(c2ccccc2)N1c1ccccc1` (stereo not drawn) [SULFINPYRAZONE], the “Bacterial Biotransformation” value [1] is reported as “Compound NOT metabolized”, the “Bacterial Biotransformation” value [2] is reported as “Compound NOT metabolized” and the “Bacterial Biotransformation” value [3] is reported as “Compound NOT metabolized”. The “Bacterial Biotransformation” value [5] was “Compound NOT metabolized”, the “Bacterial Biotransformation” value [6] was “Compound metabolized” and the “Bacterial Biotransformation” value [8] was “Compound NOT metabolized”. For the same molecule, the “Bacterial Biotransformation” value [9] was “Compound metabolized”, the “Bacterial Biotransformation” value [10] was “Compound NOT metabolized” and the “Bacterial Biotransformation” value [11] was “Compound NOT metabolized”. The “Bacterial Biotransformation” value [14] was “Compound NOT metabolized”, the “Bacterial Biotransformation” value [15] was “Compound NOT metabolized” and the “Bacterial Biotransformation” value [16] was “Compound NOT metabolized”. The “Bacterial Biotransformation” value [17] was “Compound NOT metabolized”, the “Bacterial Biotransformation” value [18] was “Compound NOT metabolized” and the “Bacterial Biotransformation” value [19] was “Compound NOT metabolized”.
With `CC[C@@]1(O)C(=O)OCc2c1cc1n(c2=O)Cc2cc3c(CN(C)C)c(O)ccc3nc2-1` [TOPOTECAN] the “Bacterial Biotransformation” value [1] was “Compound NOT metabolized”, the “Bacterial Biotransformation” value [2] was “Compound NOT metabolized” and the “Bacterial Biotransformation” value [4] was “Compound NOT metabolized”. The “Bacterial Biotransformation” value [5] was “Compound NOT metabolized”, the “Bacterial Biotransformation” value [6] was “Compound NOT metabolized” and the “Bacterial Biotransformation” value [7] was “Compound NOT metabolized”. The “Bacterial Biotransformation” value [8] was “Compound NOT metabolized”, the “Bacterial Biotransformation” value [9] was “Compound NOT metabolized” and the “Bacterial Biotransformation” value [10] was “Compound NOT metabolized”. For the same molecule, the “Bacterial Biotransformation” value [11] was “Compound NOT metabolized”, the “Bacterial Biotransformation” value [20] was “Compound NOT metabolized” and the “Bacterial Biotransformation” value [12] was “Compound NOT metabolized”. For the same molecule, the “Bacterial Biotransformation” value [13] was “Compound NOT metabolized”, the “Bacterial Biotransformation” value [14] was “Compound NOT metabolized” and the “Bacterial Biotransformation” value [15] was “Compound NOT metabolized”. The “Bacterial Biotransformation” value [16] was “Compound NOT metabolized”, the “Bacterial Biotransformation” value [17] was “Compound NOT metabolized” and the “Bacterial Biotransformation” value [18] was “Compound NOT metabolized”. The “Bacterial Biotransformation” value [19] was “Compound NOT metabolized”.
For `COc1cc(C(=O)NCc2ccc(OCCN(C)C)cc2)cc(OC)c1OC` [TRIMETHOBENZAMIDE], the “Bacterial Biotransformation” value [1] was “Compound NOT metabolized”, the “Bacterial Biotransformation” value [2] was “Compound NOT metabolized” and the “Bacterial Biotransformation” value [3] was “Compound NOT metabolized”. For the same molecule, the “Bacterial Biotransformation” value [4] was “Compound NOT metabolized”, the “Bacterial Biotransformation” value [5] was “Compound NOT metabolized” and the “Bacterial Biotransformation” value [6] was “Compound NOT metabolized”. For the same molecule, the “Bacterial Biotransformation” value [7] was “Compound NOT metabolized”, the “Bacterial Biotransformation” value [8] was “Compound NOT metabolized” and the “Bacterial Biotransformation” value [9] was “Compound NOT metabolized”. The “Bacterial Biotransformation” value [10] was “Compound NOT metabolized”, the “Bacterial Biotransformation” value [11] was “Compound NOT metabolized” and the “Bacterial Biotransformation” value [13] was “Compound NOT metabolized”. The “Bacterial Biotransformation” value [14] was “Compound NOT metabolized”, the “Bacterial Biotransformation” value [15] was “Compound NOT metabolized” and the “Bacterial Biotransformation” value [17] was “Compound NOT metabolized”. For the same molecule, the “Bacterial Biotransformation” value [18] was “Compound NOT metabolized” and the “Bacterial Biotransformation” value [19] was “Compound NOT metabolized”.
